The subject of series [1] is firefly luciferase protein in livers and spleens. As to the kind of experiment: Bioluminescence assay of expressed firefly luciferase in liver and spleen (biodistribution analysis). The format is in vivo. As to conditions: female CD-1 mice, single 200 μg i.v. dose of encapsulated FFL mRNA, 4 hours post-injection. As for the experimental part:
(§1) All studies were performed using female CD-1 mice of approximately 3-weeks age at the beginning of each experiment. Samples were introduced by a single bolus tail-vein injection of an equivalent total dose of 200 μg of encapsulated FFL mRNA. Four hours post-injection the mice were sacrificed and perfused with saline.
(§2) The liver and spleen of each mouse was harvested, apportioned into three parts, and stored in either, (i) 10% neutral buffered formalin, (ii) snap-frozen and stored at −80° C. for bioluminescence analysis (see below), or for in situ hybridization studies, or (iii) liver sections were isolated in isopentane (2-methylbutane) bath, maintained at −35° C., rinsed with 1×PBS, lightly patted with a kimwipe to remove any excess fluid, placed in the bath for approximately 5-7 minutes, after which the liver was removed, wrapped in foil and stored in a small sterile plastic bag at −80° C. until ready for assay.
The bioluminescence assay was conducted using a Promega Luciferase Assay System (Item # E1500 Promega). […]
The Luciferase Assay Reagent was prepared by adding 10 mL of Luciferase Assay Buffer to Luciferase Assay Substrate and mix via vortex. […] Each plate was inserted into the appropriate chambers using a Molecular Device Flex Station instrument and measure the luminescence (measured in relative light units (RLU)). […]

In series [2] the test system is codon-optimized firefly luciferase mRNA in liver. As to the kind of experiment: In situ hybridization of liver sections with 35S-labeled riboprobes. The format is in vivo, CD-1 mice. As to conditions: livers of injected animals, 100× magnification, FIG. 4A. How it is done:
as §1, §2
Slide preparation and analysis was performed as follows: Each liver was frozen at −35° C. according to the procedure described above. The frozen livers were cut into 6 micrometer sections and mounted onto glass microscope slides. […]
Photographic development was carried out in Kodak D-19. Sections were counterstained lightly with cresyl violet and analyzed using brightfield and darkfield microscopy. […]

Series [3] has as its system firefly luciferase protein in hepatocytes. As to the kind of experiment: Immunohistochemical analysis of liver with anti-firefly antibody. The format is in vivo. The settings on record: FFL mRNA in lipid transfer vehicle of cholesterol, DOPE, DLinDMA and DMG-PEG2000; treated mice, FIGS. 5B and 5C. From the text:
FIG. 5 illustrates immunohistochemical staining of mouse livers for the detection of firefly luciferase protein. […] Luciferase protein is observed throughout the cytoplasm of the hepatocytes. The abbreviations (S) and (H) correspond to sinusoidal cells and hepatocytes, respectively.
The FFL mRNA was packaged and delivered via a lipid transfer vehicle formulation consisting of cholesterol, DOPE, DLinDMA, and DMG-PEG2000 in a manner similar to that described supra.
The translation of the FFL mRNA into its respective protein has been successfully identified via immunohistochemical analysis (FIG. 5).

For the compound `CC(C)CCCC(C)C1CCC2C3CC=C4CC(OC(=O)CCc5cnc[nH]5)CCC4(C)C3CCC12C` [ICE, (3S,10R,13R,17R)-10,13-dimethyl-17-((R)-6-methylheptan-2-yl)-2,3,4,7,8,9,10,11,12,13,14,15,16,17-tetradecahydro-1H-cyclopenta[a]phenanthren-3-yl 3-(1H-imidazol-4-yl)propanoate], in series [1], the “Luminescence / mRNA delivery in liver versus spleen” value was “enriched delivery of mRNA to liver versus spleen”.
With “FFL mRNA: Codon-optimized firefly luciferase messenger RNA, SEQ ID NO: 1, with 5′ Cap1 and 3′ poly(A) tail of approximately 200 nucleotides”, in series [2], the “Detection of FFL mRNA in liver, dark field illumination, antisense probe” value is “detected as bright spots”. In series [3], the “Detection of expressed firefly protein by immunohistochemistry” value is given as “can be observed in the hepatocytes of treated mice”.

The record behind these values is patent US10576166B2, “Liver specific delivery of messenger RNA” (TRANSLATE BIO, INC., priority 2009, dated 2020).
